Experimental data reported in patent publication US11504367B2, “Compounds and methods for treating oxalate-related diseases” (OxaluRx, Inc., priority 2019, dated 2022).

What was measured:
[1] = tested on: alanine-glyoxylate aminotransferase (AGXT) knockout mice; assay: In vivo efficacy in Agxt−/− mouse model of primary hyperoxaluria 1 (urine oxalate and glycolate)
Protocol: The in-vivo activity of test compounds was evaluated using alanine-glyoxylate aminotransferase (AGXT) knockout mice from Jackson Laboratory (Bar Harbor, Me.), as reported by Martin-Higueras et al., Molecular Therapy, vol. 24 no. 4, 719-725, 2016. Ten to 15-week-old male AGXT knock-out mice (Agxt−/−) were used to assess the in-vivo activity of test compounds on urinary oxalate and glycolate.
Male Agxt−/− mice were housed under standard conditions (five animals per cage) and allowed free access to food and water. Upon study initiation, animals were treated with test compounds by oral gavage formulated in 20% (2-hydroxypropyl)-β-cyclodextrin (10 μL/g). […]
Urine oxalate was measured using a commercially available clinical oxalate oxidase assay (Trinity Biotech, Wicklow, Ireland) following the manufacturer's instructions.
Plasma and urine glycolate were determined by methods described in Dutta et al., “Inhibition of Glycolate Oxidase with Dicer-substrate siRNA Reduces Calcium Oxalate Deposition in a Mouse Model of Primary Hyperoxaluria Type 1.” Mol Ther., 24(4) 770-778 (2016) using liquid chromatography combined with mass spectrometry detection (LC/MS) on a triple-quadrupole instrument by electrospray ionization and multiple reaction monitoring. […] A two-step protein precipitation determined plasma glycolate. […]

[2] = In-vivo pharmacokinetic evaluation (exposure, AUC fold-over Example 1); details: male CD-1 mice, 10 mg/kg oral gavage in 20% (2-Hydroxypropyl)-β-cyclodextrin, plasma at 0.5, 2 and 6 hours post-dose; AUC expressed as fold-over Example 1
Protocol: In-vivo exposure of test compounds was determined in 5-6 week old male CD-1 mice. Mice (n=2/compound) received 10 mg/kg of each compound formulated in 20% (2-Hydroxypropyl)-β-cyclodextrin (10 μL/g) by oral gavage. At 0.5 hours, 2 hours, and 6 hours post-dose, blood samples were collected from the submandibular vein using EDTA as an anticoagulant and stored on ice. Plasma samples were obtained by centrifugation at 4° C. and were analyzed immediately or stored at −20° C. until analysis. Compounds were extracted from mouse plasma with acetonitrile and quantified by LC-MS-MS in the negative ion mode using a standard curve.

[3] = biological target: recombinant full-length human hydroxyacid oxidase 1 (HAO1), the equivalents of hGOX (Homo sapiens (Human), UniProt Q9UJM8); assay: In-vitro human glycolate oxidase (hGOX) assay (Amplex red fluorescence); assay type: biochemical; details: 6 nM recombinant human GO, 85 μM glycolate, 10 min preincubation
recombinant full-length human hydroxyacid oxidase 1 (HAO1), the equivalents of hGOX, sequence (Q9UJM8 whole entry): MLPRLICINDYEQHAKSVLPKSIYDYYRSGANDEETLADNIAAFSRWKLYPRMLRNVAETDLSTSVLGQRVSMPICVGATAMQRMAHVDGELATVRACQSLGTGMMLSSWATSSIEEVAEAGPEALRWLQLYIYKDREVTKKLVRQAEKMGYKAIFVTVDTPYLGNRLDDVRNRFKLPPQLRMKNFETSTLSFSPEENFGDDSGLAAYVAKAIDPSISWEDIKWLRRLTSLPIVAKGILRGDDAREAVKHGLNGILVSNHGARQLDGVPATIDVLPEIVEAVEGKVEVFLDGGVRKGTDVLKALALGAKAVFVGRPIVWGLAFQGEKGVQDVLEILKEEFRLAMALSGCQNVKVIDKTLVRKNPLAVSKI
Procedure, shortened: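 Activity was read as Amplex Red fluorescence (560/590 nm), with 50 μM reagent added after a 10 min room-temperature incubation. The enzyme, full-length human HAO1, was in pH 7.4 HEPES buffer containing KCl, NaCl, MgCl2 and 0.01% Triton X-100.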

[4] = biological target: glycolate oxidase (GOX) in HepaRG-CAR cells (Homo sapiens (Human), UniProt Q9UJM8); assay: HepaRG-CAR cell-based assay for quantitation of glycolate oxidase inhibition (cellular glycolate flux, GC-MS)
glycolate oxidase (GOX) in HepaRG-CAR cells, sequence (Q9UJM8 whole entry): as above

For `C#Cc1cccc(Oc2[nH]nnc2C(=O)O)c1` [Example 1, 5-(3-Ethynylphenoxy)-1H-1,2,3-triazole-4-carboxylic Acid], the “inhibition of urine oxalate” value ([1]; compound 1 dosed at 10 and 30 mg/kg, vs vehicle-treated control) was “about 30%”, the urine glycolate change ([1]; compound 1 dosed twice daily at 10 and 30 mg/kg) was “concomitant increase in urine glycolate” and the “AUC Fold over Ex. 1” value [2] was 1.0. The IC50 [3] was 21 nM and the IC50 [4] was 2500 nM.
